Laboratory results from patent US20140100165A1, “PREVENTION OF KIDNEY INJURY OR DISEASE” (University of Florida Research Foundation, priority 2012, published 2014).
Where two headings read alike, the source gives them in different places.

Legend:
[1] = test system: Acute Kidney Injury (AKI) in patients undergoing cardiac surgery; test: Example 1: prevention of AKI by different dosage regimes of AP214 in patients undergoing cardiac surgery; type: in vivo, human
Protocol: Each of 12 patients undergoing cardiac surgery (the AP214 group) was dosed with 600 μg/kg AP214: 200 μg/kg at skin incision, 200 μg/kg at cross clamp release, and 200 μg/kg 6-hour after cross clamp release. Each dosage was provided over a period of 10 minutes. The placebo group included 13 patients undergoing cardiac surgery without AP214 infusion.
Objectives • trial objective was to assess the effect of AP214 on • 1) changes in serum creatinine, cystatin-C and carbamade, • 2) on eGFR and • 3) on the development of post-surgical acute kidney injury (AKI) • AKI also assessed (post-hoc analysis) by AKIN and RIFLE
Three different definitions of AKI were tested: • 1) 3 patients in the AP214 group developed AKI, in contrast to 7 patients in the placebo group who developed AKI. AKI is defined as in the CS005 protocol: • An absolute increase in serum creatinine of more than or equal to 26.4 μmol/l (0.3 mg/dl) or • A percentage increase in serum creatinine of more than or equal to 50% (1.5-fold from baseline) from Day 0-14 and/or • Urine output less than 0.5 mL/kg per hour for more than 6 hours. • 2) AKI according to the AKIN score as presented in FIG. 3a, and • 3) AKI according to the RIFLE score as presented in FIG. 3b.

[2] = test system: Acute Kidney Injury (AKI) in patients undergoing cardiac surgery on cardiopulmonary bypass; type: in vivo; conditions: for kidney function as measured by estimated GFR: seven day post-operative period
From the text: The CS007 trial was designed to study both short and long term efficacy signals (FIG. 5).
Primary Aims • Safety: Safety and tolerability vs. placebo • Efficacy: Max post-operative change in absolute values of SCr compared to baseline within the first 7 days after surgery or until discharge from hospital, whichever comes first vs. placebo.
Secondary aims • Composite: • Assess the proportion of patients reaching the composite endpoint of death, need for RRT or a 25% reduction in renal function over a 90 day post-operative period vs. placebo. • AKIN: Assess post-operative incidence of AKI within 48 hours post-surgery • RIFLE: Assess post-operative incidence of AKI within first 7 days post-surgery. • SCr: Changes between surgery and postoperative day 7. • GFR: Changes at day 90 compared to baseline. • eGFR: Changes between surgery and postoperative day 7
Each dosage was provided over a period of 10 minutes. As used throughout this disclosure and unless specified otherwise, “μg/kg” refers to […] AP214 per kg bodyweight of the patient being treated.
Moreover, in the same double-blind study described in this Example, patients undergoing cardiac surgery on cardiopulmonary bypass (CPB) were randomized to placebo (PBO; n=26), AP214 given at either 600 μg/kg (n=25), or 800 μg/kg (n=26), divided into 3 bolus infusions at the predetermined intervals as described above. AKI was determined according to AKIN and RIFLE scores.

[3] = Example 3: evaluation of rate of infusion of AP214 (adverse events, tolerability); type: in vivo, human
Protocol: To establish a suitable rate of infusion of AP214 a set of patient trials were performed.
AP214 isotonic solution single ascending doses (25, 50 and 100 μg/kg) for intravenous infusion administered over 10 minutes, or placebo (saline infusion).
AP214 isotonic solution single doses (100 μg/kg over 1 minute; 100 μg/kg over 30 seconds; 200 μg/kg over 30 seconds) for intravenous infusion.

[4] = test system: complete warm ischemia in the kidney; conditions: pigs; 200 μg/kg, 10 ml i.v. bolus during 1 minute, seven doses; cited from earlier work
[5] = 600 μg/kg bodyweight (3×200 μg/kg) i.v. over 10 minutes each, vs placebo
[6] = 600 μg/kg bodyweight, vs placebo

With `CSCC[C@H](NC(=O)[C@H](CO)NC(=O)[C@H](Cc1ccc(O)cc1)NC(=O)[C@H](CO)NC(=O)[C@H](CCCCN)NC(=O)[C@H](CCCCN)NC(=O)[C@H](CCCCN)NC(=O)[C@H](CCCCN)NC(=O)[C@H](CCCCN)NC(=O)[C@H](CCCCN)NC(C)=O)C(=O)N[C@@H](CCC(=O)O)C(=O)N[C@@H](Cc1c[nH]cn1)C(=O)N[C@@H](Cc1ccccc1)C(=O)N[C@@H](CCCNC(=N)N)C(=O)N[C@@H](Cc1c[nH]c2ccccc12)C(=O)NCC(=O)N[C@@H](CCCCN)C(=O)N1CCC[C@H]1C(=O)N[C@H](C(N)=O)C(C)C` [AP214, Acetyl-Lysyl-L-lysyl-L-lysyl-L-lysyl-L-lysyl-L-lysyl-L-seryl-L-tyrosyl-L-seryl-L-methionyl-Lglutamyl-L-histidyl-L-phenylalanyl-L-arginyl-L-tryptophanyl-glycyl-L-lysyl-L-prolyl-L-valine amide] the “prevention of AKI as compared to placebo” value ([1]; 150 μg/kg bodyweight (3×50 μg/kg), same dosing scheme) was “showed no prevention of AKI”, the “patients who developed AKI (AKI as defined in the CS005 protocol)” value ([1]; 600 μg/kg (3×200 μg/kg), AP214 group of 12 patients, 7 of 13 in placebo group) was 3 patients and the “development of AKI according to the RIFLE and AKIN scores” value ([1]; 600 μg/kg bodyweight (3×200 μg/kg)) was “demonstrated prevention in the development of AKI”. The “decrease in eGFR” value [1, 5] was “prevented a decrease in eGFR”, the “increase in serum creatinine” value [1, 5] was “prevented” and the increase in carbamide [1, 6] was “prevented”. For the same molecule, the “increase in cystatin C” value [1, 6] was “prevented an increase in cystatin C”, the “population distribution of extreme serum creatinine values (highest quartile)” value ([2]; 600 μg/kg) was “showed a reduction in serum creatinine values at the highest quartile” and the “kidney function as measured by estimated GFR” value ([2]; 600 μg/kg) was “increased kidney function”. The “population distribution of extreme serum creatinine values (highest quartile)” value ([2]; 800 μg/kg) was “showed a reduction in serum creatinine values at the highest quartile”, the “degree of acute kidney injury compared to placebo” value ([2]; 800 μg/kg, Day 0-7) was “displayed lesser degrees of acute kidney injury” and the “incidence of AKI compared with PBO, by surgery type” value ([2]; 800 μg/kg, combined CABG and valve surgery, multiple valve surgery, chronic kidney disease and CABG (or valve surgery)) was “numerically lower incidence of AKI”. The “kidney function as measured by estimated GFR” value ([2]; 800 μg/kg) was “increased kidney function”, the adverse events ([3]; 100 μg/kg over 10 minutes i.v. (slower infusion rate)) was “did not show these adverse effects” and the “adverse events versus 100 μg/kg over 30 sec and 1 minute” value ([3]; 200 μg/kg over 30 seconds i.v.) was “more adverse events”. For the same molecule, the subjects with erythema ([3]; Group 2 (n=6), short infusion times) was 6 subjects, the adverse events ([3]; Group 2 (n=6): 100 μg/kg over 1 minute, 100 μg/kg over 30 seconds, 200 μg/kg over 30 seconds, i.v.) was “A large number of adverse events were reported” and the renoprotective effect [4] was “provides a renoprotective effect”.
